Measured values as given in patent publication US20030105118A1, “Tricyclic quinazolinediones” (priority 2002, published 2003).
pIC50: −log10 of the molar value. Where a name gives a salt, the structure may show the parent alone.

Molecular target: T1, recombinant human PARP (Homo sapiens, UniProt P09874)
T1 construct: purchased Trevigen, Inc. (USA)
Assay: PARP inhibitory activity ([3H]NAD incorporation, filter assay)
Type: biochemical
Details: recombinant human PARP 2 units/ml, 0.3 μM [3H]NAD, DNA 3 μg/ml, room temperature 1.5 hour, duplicate; read-out: IC50 (inhibitory rate of PARP activity)
Protocol: PARP (recombinant human PARP, 660 units/mg) (Trevigen, Inc. (USA))
A buffer (50 mM Tris-HCl (pH8.0)/25 mM MgCl2 aqueous solution) was used in preparation of each solution.
To a 96-well round bottom plate made of polypropylene were added successively a test compound solution (20 μl/well), 1 μM [^3H]NAD (specific activity: 7 kBq/ml) containing 10 μg/ml of DNA (30 μl/well), and 4 units/ml (6 μg/ml) PARP solution (50 μl/well), and the plate was placed under room temperature for 1.5 hour for the reaction (final concentrations of each reagent in the reaction solution: DNA: 3 μg/ml; [^3H]NAD: 0.3 μM/specific activity of 2.1 kBq/ml; PARP: 2 units/ml (3 μg/ml)). The reaction was terminated by addition of a 24 mM benzamide (9 μl/well, 2 mM after the addition), and the PARP in the reaction solution was recovered by using a cell harvester (HARVESTER 96 (registered trade name), TOMTEC Inc. (USA)) on the glass fiber filter for plate. Said glass fiber filter had been soaked with 80% ethanol just prior to the recovary of PARP, and after the recovary of PARP, each well of the plate was washed four times with 80% ethanol, and the washings were also passed through the glass fiber filter. Said glass fiber filter was dried by heating with a microwave oven for 3 to 4 minutes, and put into a sample bag being sandwiched between 2 solid scintillant sheets, and said sample bag was sealed by heat sealing. The bag was put on a heater at about 50° C. to melt the scintillant with heat in order to penetrate it into the filter. The plate was cooled to room temperature, and the [^3H] count of poly(ADP-ribose) (cpm) bound to PARP was measured with a counter for plate (1450 MicroBeta (registered trade name) TriLux, PerkinElmer, Inc. (USA)) for 10 minutes per plate.
The inhibitory rate of PARP activity was calculated by the following equation. [formula]
The inhibitory rate of each test compound was measured in duplicate, and an IC50 value thereof was calculated therefrom.

T1 sequence (P09874 whole entry): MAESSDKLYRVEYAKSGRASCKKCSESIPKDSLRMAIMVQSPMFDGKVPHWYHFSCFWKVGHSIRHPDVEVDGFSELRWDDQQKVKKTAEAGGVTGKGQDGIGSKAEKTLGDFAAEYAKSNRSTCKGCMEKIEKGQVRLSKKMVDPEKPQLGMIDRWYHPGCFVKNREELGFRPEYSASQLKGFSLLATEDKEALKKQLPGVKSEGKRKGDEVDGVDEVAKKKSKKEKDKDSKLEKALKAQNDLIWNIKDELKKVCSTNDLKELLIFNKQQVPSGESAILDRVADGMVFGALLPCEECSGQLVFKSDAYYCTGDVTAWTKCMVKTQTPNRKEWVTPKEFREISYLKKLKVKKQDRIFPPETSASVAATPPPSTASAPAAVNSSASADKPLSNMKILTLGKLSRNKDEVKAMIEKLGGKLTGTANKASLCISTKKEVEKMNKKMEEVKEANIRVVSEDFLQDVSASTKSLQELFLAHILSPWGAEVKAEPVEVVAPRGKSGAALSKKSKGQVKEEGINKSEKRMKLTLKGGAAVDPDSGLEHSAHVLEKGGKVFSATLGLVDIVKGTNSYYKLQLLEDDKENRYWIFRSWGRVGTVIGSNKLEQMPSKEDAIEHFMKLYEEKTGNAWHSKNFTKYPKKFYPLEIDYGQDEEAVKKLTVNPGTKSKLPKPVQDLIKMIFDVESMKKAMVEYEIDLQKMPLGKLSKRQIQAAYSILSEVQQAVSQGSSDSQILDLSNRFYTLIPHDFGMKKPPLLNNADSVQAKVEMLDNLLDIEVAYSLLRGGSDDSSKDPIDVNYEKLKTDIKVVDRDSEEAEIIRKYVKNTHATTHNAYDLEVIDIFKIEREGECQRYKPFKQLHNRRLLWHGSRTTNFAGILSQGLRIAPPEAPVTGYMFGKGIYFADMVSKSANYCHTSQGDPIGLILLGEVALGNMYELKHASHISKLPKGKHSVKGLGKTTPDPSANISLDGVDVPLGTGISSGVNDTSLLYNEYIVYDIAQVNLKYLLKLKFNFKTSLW

pIC50	SMILES
6.85	O=c1[nH]c(=O)n2c3c(cccc13)CC2 [Example 1, 5,6-dihydro-1H-pyrrolo[3,2,1-ij]quinazoline-1,3(2H)-dione]
7.28	O=c1[nH]c(=O)n2c3c(cccc13)CCC2 [Example 2, 6,7-Dihydro-1H,5H-pyrido[3,2,1-ij]quinazoline-1,3(2H)-dione]
> 8.30	CN(C)c1ccc(C(=O)NCC2Cc3cccc4c(=O)[nH]c(=O)n(c34)C2)cc1 (centres unmarked) [Example 29, 4-(Dimethylamino)-N-[(1,3-dioxo-2,3,6,7-tetrahydro-1H,5H-pyrido[3,2,1-ij]quinazolin-6-yl)methyl]benzamide]
8.13	O=C(NCC1Cc2cccc3c(=O)[nH]c(=O)n(c23)C1)C1CCNCC1 (centres unmarked) [Example 39, N-[(1,3-Dioxo-2,3,6,7-tetrahydro-1H,5H-pyrido[3,2,1-ij]quinazolin-6-yl)methyl]-4-piperidinecarboxamide hydrochloride]

Tested on: not given
Assay: not given
Details: not given

SMILES	melting point
Cl.NCC1CCc2cccc3c(=O)[nH]c(=O)n1c23 (centres unmarked)	> 300 °C
Cl.NCC1Cc2cccc3c(=O)[nH]c(=O)n1c23 (centres unmarked)	> 300 °C
Cl.NCC1CCn2c(=O)[nH]c(=O)c3cccc1c32 (centres unmarked)	190 °C (dec.)
Cl.NC1Cc2cccc3c(=O)[nH]c(=O)n(c23)C1 (centres unmarked)	> 300 °C
O=c1[nH]c(=O)n2c3c(cccc13)CCC2 [Example 2, 6,7-Dihydro-1H,5H-pyrido[3,2,1-ij]quinazoline-1,3(2H)-dione]	282 to 284 °C
O=c1[nH]c(=O)n2c3c(cccc13)CCC2CO (centres unmarked) [Example 3, 5-(hydroxymethyl)-6,7-dihydro-1H,5H-pyrido[3,2,1-ij]-quinazoline-1,3(2H)-dione]	205 to 207 °C
O=c1[nH]c(=O)n2c3c(cccc13)CC2CO (centres unmarked) [Example 4, 5-(Hydroxymethyl)-5,6-dihydro-1H-pyrrolo[3,2,1-ij]quinazoline-1,3(2H)-dione]	238 to 240 °C
O=c1[nH]c(=O)n2c3c(cccc13)CC(CO)C2 (centres unmarked) [Example 5, 6-(Hydroxymethyl)-6,7-dihydro-1H,5H-pyrido[3,2,1-ij]quinazoline-1,3(2H)-dione]	252 to 254 °C
O=c1[nH]c(=O)n2c3c(cccc13)C(CBr)CC2 (centres unmarked) [Example 10, 7-(Bromomethyl)-6,7-dihydro-1H,5H-pyrido[3,2,1-ij]quinazoline-1,3(2H)-dione]	225 °C (dec.)
O=C(NCC1Cc2cccc3c(=O)[nH]c(=O)n(c23)C1)c1ccccn1 (centres unmarked) [Example 24, N-[(1,3-Dioxo-2,3,6,7-tetrahydro-1H,5H-pyrido[3,2,1-ij]quinazolin-6-yl)methyl]-2-pyridinecarboxamide]	247 to 250 °C
O=C(Cc1ccccc1)NCC1Cc2cccc3c(=O)[nH]c(=O)n(c23)C1 (centres unmarked) [Example 26, N-[(1,3-Dioxo-2,3,6,7-tetrahydro-1H,5H-pyrido[3,2,1-ij]quinazolin-6-yl)methyl]-2-phenylacetamide]	275 °C (dec.)
CN(C)c1ccccc1C(=O)NCC1Cc2cccc3c(=O)[nH]c(=O)n(c23)C1 (centres unmarked) [Example 27, 2-(Dimethylamino)-N-[(1,3-dioxo-2,3,6,7-tetrahydro-1H,5H-pyrido[3,2,1-ij]quinazolin-6-yl)methyl]benzamide]	220 to 236 °C
O=C(NCC1Cc2cccc3c(=O)[nH]c(=O)n(c23)C1)C1CCCCC1 (centres unmarked) [Example 30, N-[(1,3-Dioxo-2,3,6,7-tetrahydro-1H,5H-pyrido[3,2,1-ij]quinazolin-6-yl)methyl]cyclohexanecarboxamide]	280 to 281 °C (dec.)
O=C(NCC1Cc2cccc3c(=O)[nH]c(=O)n(c23)C1)c1ccnnc1 (centres unmarked) [Example 32, N-[(1,3-Dioxo-2,3,6,7-tetrahydro-1H,5H-pyrido[3,2,1-ij]quinazolin-6-yl)methyl]-4-pyridazinecarboxamide]	279 to 281 °C (dec.)
O=C(NCC1Cc2cccc3c(=O)[nH]c(=O)n(c23)C1)C1CCN(Cc2ccccc2)CC1 (centres unmarked) [Example 35, 1-Benzyl-N-[(1,3-dioxo-2,3,6,7-tetrahydro-1H,5H-pyrido[3,2,1-ij]-quinazolin-6-yl)methyl]-4-piperidinecarboxamide]	240 to 242 °C (dec.)
O=c1[nH]c(=O)n2c3c(cccc13)C(O)C2 (centres unmarked) [Example 46, 6-hydroxy-5,6-dihydro-1H-pyrrolo[3,2,1-ij]quinazoline-1,3(2H)-dione]	260 to 266 °C (dec.)

Next, values leading:

melting point	SMILES
290 to 296 °C (dec.)	Cl.NCCC(=O)NCC1Cc2cccc3c(=O)[nH]c(=O)n1c23 (centres unmarked)
> 300 °C	Cl.NCc1ccc(C(=O)NCC2Cc3cccc4c(=O)[nH]c(=O)n(c34)C2)cc1 (centres unmarked)
314 to 315 °C	O=c1[nH]c(=O)n2c3c(cccc13)CC2 [Example 1, 5,6-dihydro-1H-pyrrolo[3,2,1-ij]quinazoline-1,3(2H)-dione]
226 °C (dec.)	O=c1[nH]c(=O)n2c3c(cccc13)C(CO)CC2 (centres unmarked) [Example 6, 7-(Hydroxymethyl)-6,7-dihydro-1H,5H-pyrido[3,2,1-ij]quinazoline-1,3(2H)-dione]
267 to 270 °C (dec.)	O=c1[nH]c(=O)n2c3c(cccc13)CC(CBr)C2 (centres unmarked) [Example 9, 6-(Bromomethyl)-6,7-dihydro-1H,5H-pyrido[3,2,1-ij]quinazoline-1,3(2H)-dione]
282 to 285 °C	O=C(NCC1Cc2cccc3c(=O)[nH]c(=O)n(c23)C1)c1ccncc1 (centres unmarked) [Example 23, N-[(1,3-Dioxo-2,3,6,7-tetrahydro-1H,5H-pyrido[3,2,1-ij]quinazolin-6-yl)methyl]isonicotinamide]
158 to 170 °C	CN(C)c1cccc(C(=O)NCC2Cc3cccc4c(=O)[nH]c(=O)n(c34)C2)c1 (centres unmarked) [Example 28, 3-(Dimethylamino)-N-[(1,3-dioxo-2,3,6,7-tetrahydro-1H,5H-pyrido[3,2,1-ij]quinazolin-6-yl)methyl]benzamide]
268 to 278 °C (dec.)	CN(C)c1ccc(C(=O)NCC2Cc3cccc4c(=O)[nH]c(=O)n(c34)C2)cc1 (centres unmarked) [Example 29, 4-(Dimethylamino)-N-[(1,3-dioxo-2,3,6,7-tetrahydro-1H,5H-pyrido[3,2,1-ij]quinazolin-6-yl)methyl]benzamide]
255 to 257 °C (dec.)	O=C(NCC1Cc2cccc3c(=O)[nH]c(=O)n(c23)C1)c1cnccn1 (centres unmarked) [Example 31, N-[(1,3-Dioxo-2,3,6,7-tetrahydro-1H,5H-pyrido[3,2,1-ij]quinazolin-6-yl)methyl]-2-pyrazinecarboxamide]
240 to 243 °C (dec.)	CN(C)Cc1ccc(C(=O)NCC2Cc3cccc4c(=O)[nH]c(=O)n(c34)C2)cc1 (centres unmarked) [Example 33, 4-[(Dimethylamino)methyl]-N-[(1,3-dioxo-2,3,6,7-tetrahydro-1H,5H-pyrido[3,2,1-ij]quinazolin-6-yl)methyl]benzamide]
246 to 250 °C (dec.)	CN1CCC(C(=O)NCC2Cc3cccc4c(=O)[nH]c(=O)n(c34)C2)CC1 (centres unmarked) [Example 34, N-[(1,3-Dioxo-2,3,6,7-tetrahydro-1H,5H-pyrido[3,2,1-ij]quinazolin-6-yl)methyl]-1-methyl-4-piperidinecarboxamide]
192 to 196 °C	O=c1[nH]c(=O)n2c3c(cccc13)CCCC2 [Example 48, 5,6,7,8-Tetrahydro-1H-azepino[3,2,1-ij]quinazoline-1,3(2H)-dione]
